Experimental data from patent US20040200144A1, “Plant growth regulator and a method of producing the regulator” (Dainichiseika Color & Chemicals Mfg. Co., Ltd., priority 2003, published 2004).

Columns and labels:
Format in all cases: in vivo
cauliflower young plants = assay: Dwarfing test of cauliflower young plant; details: for Plant Height / Dwarfing Rate: 5 ml per cell on 4th day, measured 20th day; for Dwarfing Rate: vs comparative group
Experimental: [The source words this procedure for another target and says it was used here with some conditions changed.] 50 g of sodium tripolyphosphate was dissolved in 400 ml of distilled water at 80° C., 17.5 g of cinnamic acid was added to the sodium tripolyphosphate solution and dissolved by stirring, the resultant solution was diluted with distilled water until the total volume of solution was 500 ml, and thus 3.5% cinnamic acid aqueous solution (pH 6.5) was prepared. The aqueous solution was further diluted with distilled water 70 times or 17.5 times, and 0.05% cinnamic acid aqueous solution and 0.2% cinnamic acid aqueous solution were prepared, respectively.
Nursery soil for house use was filled into paper joint pots (each with 24 cells: 34×43×50 mm/cell), water was sufficiently given to the soil, and seeds of carrots were sowed. After seeding, the pot was placed in the same greenhouse as described above to sprout. Subsequently, on the 5th day, the cinnamic aqueous acid solutions were added to the nursery soil in the joint pots. One of the joint pots (24 cells) was prepared as a 0.05% cinnamic acid aqueous solution addition group, and 5 ml of the 0.05% cinnamic acid aqueous solution was added to the nursery soil of each cell. Another one of the join pots was prepared as a 0.2% cinnamic acid aqueous solution addition group, and 5 ml of the 0.2% cinnamic acid aqueous solution was added to the nursery soil of each cell. The other one of the joint pots was prepared as a comparative group in which 5 ml of water is added to each cell, instead of the cinnamic acid aqueous solution. Subsequently, the cultivation of carrot young plants in each group was continued under general conditions. On the 27th day, the heights of young plants in each group were measured, the dwarfing rate (%) was calculated, and the dwarfing effect of cinnamic acid aqueous solution on carrot young plants was examined. […].

hydrangea young plants = assay: Dwarfing test of hydrangea young plant; details: for Plant Height / Dwarfing Rate: 100 ml per pot on 42nd day, measured 72nd day; for Dwarfing Rate: vs comparative group
Experimental: Dwarfing rate (%)=[(the plant height of the comparative group)−(the plant height of an addition group)/the plant height of the comparative group]×100 […] A cutting of a fresh shoot of hydrangea was planted in the soil of each pot (diameter of 10.5 cm and depth of 8.5 cm) and cultivated continuously after the cuttage. On the 42nd day, top pinching was performed, a young plant was adjusted to have a height of 8 cm and four leaves and planted and fixed in a pot (diameter of 14.5 cm and depth of 14.5 cm) At this point, 100 ml of 0.2% or 0.4% cinnamic acid aqueous solution prepared as described above was added to the nursery soil of 8 pots, and thus 0.2% cinnamic acid aqueous solution addition group and 0.4% cinnamic acid aqueous solution addition group were prepared. Further, 8 pots were prepared as a comparative group on which general watering was performed. The cultivation of young plants of each group was continued. On the 72nd day, heights of young plants in each group were measured, the dwarfing rate (%) was calculated, and the dwarfing effect of cinnamic acid aqueous solution on hydrangea was examined. From the results in Table 26, it became evident that the cinnamic acid solutions are effective in dwarfing hydrangea young plants.

squash young plants = assay: Dwarfing test of squash young plant; details: for Plant Height / Dwarfing Rate: 5 ml per cell on 7th day, measured 20th day; for Dwarfing Rate: vs comparative group
Experimental: After seeding, the pot was placed in the same greenhouse as described above to sprout. Subsequently, on the 5th day, the cinnamic aqueous acid solutions were added to the nursery soil in the joint pots. One of the joint pots (24 cells) was prepared as a 0.05% cinnamic acid aqueous solution addition group, and 5 ml of the 0.05% cinnamic acid aqueous solution was added to the nursery soil of each cell. Another one of the join pots was prepared as a 0.2% cinnamic acid aqueous solution addition group, and 5 ml of the 0.2% cinnamic acid aqueous solution was added to the nursery soil of each cell. […] Subsequently, the cultivation of carrot young plants in each group was continued under general conditions. On the 27th day, the heights of young plants in each group were measured, the dwarfing rate (%) was calculated, and the dwarfing effect of cinnamic acid aqueous solution on carrot young plants was examined. From the results in Table 5, it became evident that the 0.05% and 0.2% cinnamic acid aqueous solutions are effective in dwarfing carrot young plants. In the same way as in Example 5 except that seeds of cauliflower were sowed, the cinnamic acid solutions were added to the nursery soil in the joint pot on the 4th day, and that heights of young plants in each group were measured on the 20th day, the dwarfing effect of cinnamic acid aqueous solution on cauliflower young plants was examined. From the results in Table 12, it became evident that the cinnamic acid aqueous solutions are effective in dwarfing cauliflower young plants. In the same way as in Example 12 except that seeds of tomato were sowed, and that the cinnamic acid solutions were added to the nursery soil of the joint pot on the 7th day, the dwarfing effect of cinnamic acid aqueous solution on tomato young plants was examined. From the results in Table 17, it became evident that the cinnamic acid aqueous solutions are effective in dwarfing tomato young plants. In the same way as in Example 17 except that seeds of squash were sowed, the dwarfing effect of cinnamic acid aqueous solution on squash young plants was examined. From the results in Table 20, it became evident that the cinnamic acid aqueous solutions are effective in dwarfing squash young plants.

O=C(O)C=Cc1ccccc1 [cinnamic acid]
Plant Height (cauliflower young plants; 0.05% aqueous solution): 6.8 cm | Dwarfing Rate (cauliflower young plants; 0.05% aqueous solution): 22.7% | Plant Height (cauliflower young plants; 0.2% aqueous solution): 5.0 cm | Dwarfing Rate (cauliflower young plants; 0.2% aqueous solution): 43.2% | dwarfing effect (cauliflower young plants; cauliflower young plants, 0.05% and 0.2% aqueous solutions): effective | Plant Height (hydrangea young plants; 0.2% aqueous solution): 15.1 cm | Dwarfing Rate (hydrangea young plants; 0.2% aqueous solution): 2.6% | Plant Height (hydrangea young plants; 0.4% aqueous solution): 11.7 cm | Dwarfing Rate (hydrangea young plants; 0.4% aqueous solution): 24.5% | dwarfing effect (hydrangea young plants; hydrangea young plants, 0.2% and 0.4% aqueous solutions): effective | Plant Height (squash young plants; 0.05% aqueous solution): 6.3 cm | Dwarfing Rate (squash young plants; 0.05% aqueous solution): 27.6% | Plant Height (squash young plants; 0.2% aqueous solution): 4.3 cm | Dwarfing Rate (squash young plants; 0.2% aqueous solution): 50.6% | dwarfing effect (squash young plants; squash young plants, 0.05% and 0.2% aqueous solutions): effective
